Experimental data published in paper PMC6428247, “Potent inhibitors of equine steroid isomerase EcaGST A3-3” (PLoS ONE, 2019).
Values joined by “and” are separate entries in the source; they are usually repeats but may differ in a detail not shown here. Identical values can stand only once. Like-named read-outs stand apart in the source and are kept apart here.

B1: EcaGST A3-3 (Equus caballus) (protein)
chain: MAVKPMLHYFNGRGRMEPIRWLLAAAGVEFEETFIDTPEDFEKLKNDGSLMFQQVPMVEIDGMKLVQSRAILNYVAAKHNLYGKDIKERALIDMYIEGVADLNEMILLLPITPPAEKDAKIMLIKDRTTNRYLPAFEKVLKSHGEDYLVGNRLSRADIHLVELLYLVEELDPSLLTNFPLLKALKARISNLPTVKKFLQPGGARKPPGDEKSVEKSRKIFKF

Key:
HsaGST S1-1 = system: HsaGST S1-1; design: method as in PMID 25603235; conditions: 1 mM GSH, 1 mM CDNB, pH 6.5, 30°C, cited from earlier work; for Inhibition (%) of HsaGST S1-1: 10 μM inhibitor; for IC50: CDNB activity
EcaGST A3-3 [1] = molecular target: T1, EcaGST A3-3 (Equus caballus, UniProt M9ZT87); experiment: Inhibition of EcaGST A3-3 steroid double-bond isomerase activity with Δ^5-AD; assay type: biochemical, Equus ferus caballus
HsaGST A3-3 [2] = molecular target: T2, HsaGST A3-3 (Homo sapiens, UniProt Q16772); design: method as in PMID 23769903; conditions: CDNB activity, 1 mM GSH, 1 mM CDNB, pH 6.5, 30°C; read-out: IC50 HsaGST A3-3 (published); cited from earlier work
T2 construct: made in house
T2 sequence (Q16772 1-222): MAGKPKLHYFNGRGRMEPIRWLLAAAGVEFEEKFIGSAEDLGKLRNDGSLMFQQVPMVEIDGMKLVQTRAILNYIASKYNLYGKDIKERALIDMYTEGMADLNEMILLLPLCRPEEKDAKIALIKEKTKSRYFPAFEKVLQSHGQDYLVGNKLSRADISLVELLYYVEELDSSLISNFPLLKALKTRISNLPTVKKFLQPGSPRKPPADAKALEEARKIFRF

HsaGST P1-1 = system: HsaGST P1-1; design: method as in PMID 23769903; conditions: 1 mM GSH, 1 mM CDNB, pH 6.5, 30°C, cited from earlier work; for Inhibition (%) of HsaGST P1-1: 3.3 μM inhibitor; for IC50: CDNB activity
HsaGST M2-2 = molecular target: T3, HsaGST M2-2 (Homo sapiens, UniProt P28161); experiment: Inhibition of HsaGST M2-2 CDNB activity; assay type: biochemical
T3 construct: made in house
T3 sequence (P28161 1-218): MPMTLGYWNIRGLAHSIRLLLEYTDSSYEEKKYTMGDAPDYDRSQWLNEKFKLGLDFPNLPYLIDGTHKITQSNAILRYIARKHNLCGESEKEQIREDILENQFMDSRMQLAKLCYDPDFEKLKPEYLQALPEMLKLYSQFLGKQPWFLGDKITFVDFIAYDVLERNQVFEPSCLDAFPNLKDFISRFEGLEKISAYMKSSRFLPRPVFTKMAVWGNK
Method: (§1) EcaGST A3-3 [10], HsaGST A3-3 [12] and HsaGST M2-2 [13] were cloned, expressed and purified as described previously. Protein concentration was determined by means of the Bradford assay.
(§2) The conjugation of GSH with the electrophilic substrate CDNB was used as a biochemical assay for general activity measurements. Screening of the US Drug library for inhibition was done in triplicates in 96-well plates in a Thermo Scientific Multiskan GO spectrophotometer. The conjugation activity at 30°C was monitored at 340 nm for 1 min in 0.1 M sodium phosphate buffer at pH 6.5 and 10 μM inhibitor concentration in a final volume of 300 μL. Initial concentrations of GSH and CDNB were 1 mM.
(§3) For understanding the effects of pharmacological interventions based on GST inhibitors, it is important to know the selectivity among the numerous GSTs. […] All values were determined with CDNB, which is a common substrate for all the enzymes.

HsaGST A3-3 [3] = molecular target: T2, HsaGST A3-3; experiment: Inhibition of HsaGST A3-3 CDNB activity; assay type: biochemical; conditions: for Inhibition (%) of HsaGST A3-3: 10 μM inhibitor
Method: as §1, §2, §3

EcaGST A3-3 [4] = molecular target: T1, EcaGST A3-3; experiment: Inhibition of EcaGST A3-3 activity, GSH conjugation with CDNB; assay type: biochemical, Equus ferus caballus; conditions: for Inhibition (%) of EcaGST A3-3: 10 μM inhibitor, sodium phosphate pH 6.5, 30°C; for inhibition at 10 µM: pH 6.5, read-out: Inhibition (%) of EcaGST A3-3, 10 μM inhibitor, 1 mM GSH, 1 mM CDNB, sodium phosphate pH 6.5, 30°C
Method: The final solvent concentration in the reaction system was kept at 5% (v/v) as a maximum.
as §2
Assay conditions for inhibition measurements of enzyme activity with CDNB were the following: EcaGST A3-3 15 nM, initial concentrations of GSH and CDNB 1 mM, inhibitor concentrations varying from 0.029 μM to 15 μM, in 100 mM Na2HPO4/NaH2PO4 at pH 6.5.
The reactions were followed spectrophotometrically for 1 min at 30°C using a Shimadzu UV-2501 PC spectrophotometer (Shimadzu Inc.). All experiments included triplicate measurements in each data point.
The equation for competitive inhibition fitted by non-linear regression was v=Vmax[S]/KM(1+[I]/Ki)+[S] where [S] is the substrate concentrations and [I] is the inhibitor concentration.

[5] = substrate: CC12CCC3C(CC=C4CC(=O)CCC43C)C1CCC2=O; experiment: purified protein, by the assay type; conditions: other: 1 mM GSH, fitted with and without anthralin; 30.0 °C
[6] = 10 μM inhibitor, 1 mM GSH, 1 mM CDNB, pH 6.5, 30°C, read-out: Inhibition (%) of HsaGST M2-2
[7] = pH 6.5, 10 μM inhibitor, 1 mM GSH, 1 mM CDNB, pH 6.5, 30°C, read-out: Inhibition (%) of HsaGST A3-3
[8] = 1 mM CDNB, 1 mM GSH, 100 mM sodium phosphate pH 6.5, 30°C, read-out: IC50 EcaGST A3-3, substrate CDNB
[9] = 0.1 mM Δ^5-AD, 1 mM GSH, 25 mM sodium phosphate pH 8.0, 30°C
[10] = 10 μM inhibitor, 1 mM GSH, 1 mM CDNB, pH 6.5, 30°C
[11] = 1 mM GSH, 1 mM CDNB, pH 6.5, 30°C

Row | Molecule | Inhibition (%) of HsaGST S1-1 (HsaGST S1-1) [%] | IC50 (HsaGST S1-1) [nM] | IC50 (EcaGST A3-3 [1]) [nM] | IC50 (HsaGST A3-3 [2]) [nM] | Inhibition (%) of HsaGST P1-1 (HsaGST P1-1) [%] | inhibition at 10 µM (HsaGST M2-2; [6]) [%] | inhibition at 10 µM (HsaGST A3-3 [3]; [7]) [%] | Inhibition (%) of EcaGST A3-3 (EcaGST A3-3 [4]; 1 mM GSH, 1 mM CDNB) [%] | IC50 (EcaGST A3-3 [4]; [8]) [nM] | IC50 EcaGST A3-3, substrate Δ^5-AD (EcaGST A3-3 [1]; [9]) | IC50 (HsaGST P1-1) [nM] | Inhibition (%) of HsaGST M2-2 (HsaGST M2-2; [10]) | Inhibition (%) of HsaGST A3-3 (HsaGST A3-3 [3]; [11]) [%] | IC50 (EcaGST A3-3 [4]) [nM] | inhibition at 10 µM (EcaGST A3-3 [4]) [%] | further results
1 | Oc1c(Cl)cc(Cl)cc1Sc1cc(Cl)cc(Cl)c1O [Bithionate sodium] | 47 | 12000 | 1600 ± 310 | 700 | 10 | 73 | 47 | 64 ± 22 | 1900 ± 520 |  |  |  |  |  |  | 
2 | C=C(CC)C(=O)c1ccc(OCC(=O)O)c(Cl)c1Cl [Ethacrynic acid] | 32 | 44000 | 250 ± 100 | 400 | 25 | 0 | 94 to 100 | 100 |  | submicromolar range | 4900 | low or negligible effects | 94 | 180 ± 67 | 94 to 100 | Inhibition (%) of HsaGST S1-1 (HsaGST S1-1; listed as ethacrynic acid): low or negligible effects; Hill coefficient, Δ^5-AD inhibition (EcaGST A3-3 [1]; dose-response curve, substrate Δ^5-AD, mean ± SD): 1.0; Inhibition (%) of HsaGST P1-1 (HsaGST P1-1; listed as ethacrynic acid): low or negligible effects; Inhibition modality, substrate CDNB (EcaGST A3-3 [4]; CDNB varied, 1 mM GSH): Competitive; Ki (EcaGST A3-3 [4]; Ki, EcaGST A3-3, substrate CDNB, CDNB varied, 1 mM GSH, 0.25 μM inhibitor): 140 nM and 141 nM; Hill coefficient, CDNB inhibition (EcaGST A3-3 [4]; dose-response curve, substrate CDNB, mean ± SD): 2.5±0.21
3 | Oc1c(Cl)cc(Cl)c(Cl)c1Cc1c(O)c(Cl)cc(Cl)c1Cl [Hexachlorophene] | 61 | 8900 | 440 ± 220 | 160 | 34 |  |  |  |  |  | 9700 |  |  | 320 ± 36 | 96 ± 1.1 | IC50 (HsaGST M2-2): 1500 nM; inhibition at 10 µM (HsaGST M2-2; pH 6.5, read-out: Inhibition (%) of HsaGST M2-2): 98%; inhibition at 10 µM (HsaGST A3-3 [3]; pH 6.5, read-out: Inhibition (%) of HsaGST A3-3): 89%
4 | O=C([O-])c1ccccc1-c1c2cc(Br)c(=O)cc-2oc2[c]([Hg+])c([O-])c(Br)cc12.[Na+].[Na+].[OH-] [Merbromin] | 85 | 3300 |  | 660 | 44 |  |  | 95 ± 18 | 2600 ± 630 |  | 3100 | 85% | 98 |  |  | IC50 (EcaGST A3-3 [1]; read-out: IC50 EcaGST A3-3, substrate Δ^5-AD, 0.1 mM Δ^5-AD, 1 mM GSH, 25 mM sodium phosphate pH 8.0, 30°C): 2500 ± 480 nM; IC50 (HsaGST M2-2; CDNB activity, 1 mM GSH, 1 mM CDNB, pH 6.5, 30°C, read-out: IC50 HsaGST M2-2): 4900 nM
5 | Chlorophyllide Cu-complex Na salt | 100 | 1700 |  | 330 | 51 |  |  | 98 ±2.2 | 2100 ± 270 | Anomalous curve | 2300 | 100% | 84 |  |  | 
6 | B1 |  |  |  |  |  |  |  |  |  |  |  |  |  |  |  | Km [5]: 10.8 ± 0.46 µM
